# Results: paper PMC12670405, “Second-Generation AURKA-Targeting PROTACs: Structural Optimization toward in Vivo Degradation in Neuroblastoma” (Journal of Medicinal Chemistry, 2025)
# Tests used:
# Assay in all cases: KINOMEscan scanMAX
# Assay type in all cases: binding
# PAK3 = molecular target: T1, PAK3 (Homo sapiens, UniProt O75914); conditions: read-out: Percent Control
# T1 construct: purchased Eurofins Discovery (DiscoverX KINOMEscan scanMAX)
# Protocol: (§1) The kinome-wide binding assay was performed by Eurofins Discovery using the scanMAX screening platform. More information can be found on the Eurofins Discovery Web site.
# CSNK1G2 = molecular target: T2, CSNK1G2 (Homo sapiens, UniProt P78368); conditions: read-out: Percent Control
# T2 construct: purchased Eurofins Discovery (DiscoverX KINOMEscan scanMAX)
# Protocol: as §1
# CAMK2A = molecular target: T3, CAMK2A (Homo sapiens, UniProt Q9UQM7); conditions: read-out: Percent Control
# T3 construct: purchased Eurofins Discovery (DiscoverX KINOMEscan scanMAX)
# Protocol: as §1
# PIKFYVE = molecular target: T4, PIKFYVE (Homo sapiens, UniProt Q9Y2I7); conditions: read-out: Percent Control
# T4 construct: purchased Eurofins Discovery (DiscoverX KINOMEscan scanMAX)
# Protocol: as §1
# AAK1 = molecular target: T5, AAK1 (Homo sapiens, UniProt Q2M2I8); conditions: read-out: Percent Control
# T5 construct: purchased Eurofins Discovery (DiscoverX KINOMEscan scanMAX)
# Protocol: as §1
# [1] = molecular target: T6, RSK3(Kin.Dom.2-C-terminal) (Homo sapiens, UniProt Q15349); conditions: read-out: Percent Control
# T6 construct: RSK3(Kin.Dom.2-C-terminal); purchased Eurofins Discovery (DiscoverX KINOMEscan scanMAX)
# Protocol: as §1
# TYRO3 = molecular target: T7, TYRO3 (Homo sapiens, UniProt Q06418); conditions: read-out: Percent Control
# T7 construct: purchased Eurofins Discovery (DiscoverX KINOMEscan scanMAX)
# Protocol: as §1
# TESK1 = molecular target: T8, TESK1 (Homo sapiens, UniProt Q15569); conditions: read-out: Percent Control
# T8 construct: purchased Eurofins Discovery (DiscoverX KINOMEscan scanMAX)
# Protocol: as §1
# PLK2 = molecular target: T9, PLK2 (Homo sapiens, UniProt Q9NYY3); conditions: read-out: Percent Control
# T9 construct: purchased Eurofins Discovery (DiscoverX KINOMEscan scanMAX)
# Protocol: as §1
# STK33 = molecular target: T10, STK33 (Homo sapiens, UniProt Q9BYT3); conditions: read-out: Percent Control
# T10 construct: purchased Eurofins Discovery (DiscoverX KINOMEscan scanMAX)
# Protocol: as §1
# SRPK1 = molecular target: T11, SRPK1 (Homo sapiens, UniProt Q96SB4); conditions: read-out: Percent Control
# T11 construct: purchased Eurofins Discovery (DiscoverX KINOMEscan scanMAX)
# Protocol: as §1
# MRCKA = molecular target: T12, MRCKA (Homo sapiens, UniProt Q5VT25); conditions: read-out: Percent Control
# T12 construct: purchased Eurofins Discovery (DiscoverX KINOMEscan scanMAX)
# Protocol: as §1
# ACVRL1 = molecular target: T13, ACVRL1 (Homo sapiens, UniProt P37023); conditions: read-out: Percent Control
# T13 construct: purchased Eurofins Discovery (DiscoverX KINOMEscan scanMAX)
# Protocol: as §1
# EGFR = molecular target: T14, EGFR (Homo sapiens, UniProt P00533); conditions: read-out: Percent Control
# T14 construct: purchased Eurofins Discovery (DiscoverX KINOMEscan scanMAX)
# Protocol: as §1
# PIK3CA = molecular target: T15, PIK3CA (Homo sapiens, UniProt P42336); conditions: read-out: Percent Control
# T15 construct: purchased Eurofins Discovery (DiscoverX KINOMEscan scanMAX)
# Protocol: as §1
# ASK1 = molecular target: T16, ASK1 (Homo sapiens, UniProt Q99683); conditions: read-out: Percent Control
# T16 construct: purchased Eurofins Discovery (DiscoverX KINOMEscan scanMAX)
# Protocol: as §1
# TAOK3 = molecular target: T17, TAOK3 (Homo sapiens, UniProt Q9H2K8); conditions: read-out: Percent Control
# T17 construct: purchased Eurofins Discovery (DiscoverX KINOMEscan scanMAX)
# Protocol: as §1
# [2] = molecular target: T18, RSK1(Kin.Dom.1-N-terminal) (Homo sapiens, UniProt Q15418); conditions: read-out: Percent Control
# T18 construct: RSK1(Kin.Dom.1-N-terminal); purchased Eurofins Discovery (DiscoverX KINOMEscan scanMAX)
# Protocol: as §1
# MEK1 = molecular target: T19, MEK1 (Homo sapiens, UniProt Q02750); conditions: read-out: Percent Control
# T19 construct: purchased Eurofins Discovery (DiscoverX KINOMEscan scanMAX)
# Protocol: as §1
# KIT(A829P) = molecular target: T20, KIT(A829P) (Homo sapiens, UniProt P10721, A829P); conditions: read-out: Percent Control
# T20 construct: purchased Eurofins Discovery (DiscoverX KINOMEscan scanMAX)
# Protocol: as §1
# PHKG2 = molecular target: T21, PHKG2 (Homo sapiens, UniProt P15735); conditions: read-out: Percent Control
# T21 construct: purchased Eurofins Discovery (DiscoverX KINOMEscan scanMAX)
# Protocol: as §1
# NDR2 = molecular target: T22, NDR2 (Homo sapiens, UniProt Q9Y2H1); conditions: read-out: Percent Control
# T22 construct: purchased Eurofins Discovery (DiscoverX KINOMEscan scanMAX)
# Protocol: as §1
# MAP3K15 = molecular target: T23, MAP3K15 (Homo sapiens, UniProt Q6ZN16); conditions: read-out: Percent Control
# T23 construct: purchased Eurofins Discovery (DiscoverX KINOMEscan scanMAX)
# Protocol: as §1
# EPHB6 = molecular target: T24, EPHB6 (Homo sapiens, UniProt O15197); conditions: read-out: Percent Control
# T24 construct: purchased Eurofins Discovery (DiscoverX KINOMEscan scanMAX)
# Protocol: as §1
# ERK3 = molecular target: T25, ERK3 (Homo sapiens, UniProt Q16659); conditions: read-out: Percent Control
# T25 construct: purchased Eurofins Discovery (DiscoverX KINOMEscan scanMAX)
# Protocol: as §1
# PRKCH = molecular target: T26, PRKCH (Homo sapiens, UniProt P24723); conditions: read-out: Percent Control
# T26 construct: purchased Eurofins Discovery (DiscoverX KINOMEscan scanMAX)
# Protocol: as §1
# ZAK = molecular target: T27, ZAK (Homo sapiens, UniProt Q9NYL2); conditions: read-out: Percent Control
# T27 construct: purchased Eurofins Discovery (DiscoverX KINOMEscan scanMAX)
# Protocol: as §1
# MST4 = molecular target: T28, MST4 (Homo sapiens, UniProt Q9P289); conditions: read-out: Percent Control
# T28 construct: purchased Eurofins Discovery (DiscoverX KINOMEscan scanMAX)
# Protocol: as §1
# CDK11 = molecular target: T29, CDK11 (Homo sapiens, UniProt Q9BWU1); conditions: read-out: Percent Control
# T29 construct: purchased Eurofins Discovery (DiscoverX KINOMEscan scanMAX)
# Protocol: as §1
# SNRK = molecular target: T30, SNRK (Homo sapiens, UniProt Q9NRH2); conditions: read-out: Percent Control
# T30 construct: purchased Eurofins Discovery (DiscoverX KINOMEscan scanMAX)
# Protocol: as §1
# HIPK4 = molecular target: T31, HIPK4 (Homo sapiens, UniProt Q8NE63); conditions: read-out: Percent Control
# T31 construct: purchased Eurofins Discovery (DiscoverX KINOMEscan scanMAX)
# Protocol: as §1
# FLT3(ITD) = system: FLT3(ITD)
# Protocol: as §1
# PAK1 = molecular target: T32, PAK1 (Homo sapiens, UniProt Q13153); conditions: read-out: Percent Control
# T32 construct: purchased Eurofins Discovery (DiscoverX KINOMEscan scanMAX)
# Protocol: as §1
# T26 sequence (P24723 whole entry): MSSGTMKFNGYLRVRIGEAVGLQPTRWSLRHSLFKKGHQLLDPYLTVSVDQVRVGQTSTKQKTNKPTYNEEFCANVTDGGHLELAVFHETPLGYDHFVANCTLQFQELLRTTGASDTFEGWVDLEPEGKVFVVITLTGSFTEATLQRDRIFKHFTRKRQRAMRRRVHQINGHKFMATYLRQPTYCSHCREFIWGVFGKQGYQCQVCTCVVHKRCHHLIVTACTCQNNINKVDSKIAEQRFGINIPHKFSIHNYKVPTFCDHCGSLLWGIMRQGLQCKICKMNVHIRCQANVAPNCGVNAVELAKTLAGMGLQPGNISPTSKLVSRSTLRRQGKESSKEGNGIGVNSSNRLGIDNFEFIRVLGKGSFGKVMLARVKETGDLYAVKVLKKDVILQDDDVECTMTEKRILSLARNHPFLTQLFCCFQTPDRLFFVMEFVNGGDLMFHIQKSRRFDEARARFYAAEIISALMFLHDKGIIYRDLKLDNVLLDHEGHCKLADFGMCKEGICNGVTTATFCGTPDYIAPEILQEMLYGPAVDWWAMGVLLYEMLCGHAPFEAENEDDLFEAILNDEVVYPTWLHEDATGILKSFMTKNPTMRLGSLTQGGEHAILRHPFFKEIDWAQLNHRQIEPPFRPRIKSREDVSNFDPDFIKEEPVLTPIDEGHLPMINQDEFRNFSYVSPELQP
# T4 sequence (Q9Y2I7 whole entry): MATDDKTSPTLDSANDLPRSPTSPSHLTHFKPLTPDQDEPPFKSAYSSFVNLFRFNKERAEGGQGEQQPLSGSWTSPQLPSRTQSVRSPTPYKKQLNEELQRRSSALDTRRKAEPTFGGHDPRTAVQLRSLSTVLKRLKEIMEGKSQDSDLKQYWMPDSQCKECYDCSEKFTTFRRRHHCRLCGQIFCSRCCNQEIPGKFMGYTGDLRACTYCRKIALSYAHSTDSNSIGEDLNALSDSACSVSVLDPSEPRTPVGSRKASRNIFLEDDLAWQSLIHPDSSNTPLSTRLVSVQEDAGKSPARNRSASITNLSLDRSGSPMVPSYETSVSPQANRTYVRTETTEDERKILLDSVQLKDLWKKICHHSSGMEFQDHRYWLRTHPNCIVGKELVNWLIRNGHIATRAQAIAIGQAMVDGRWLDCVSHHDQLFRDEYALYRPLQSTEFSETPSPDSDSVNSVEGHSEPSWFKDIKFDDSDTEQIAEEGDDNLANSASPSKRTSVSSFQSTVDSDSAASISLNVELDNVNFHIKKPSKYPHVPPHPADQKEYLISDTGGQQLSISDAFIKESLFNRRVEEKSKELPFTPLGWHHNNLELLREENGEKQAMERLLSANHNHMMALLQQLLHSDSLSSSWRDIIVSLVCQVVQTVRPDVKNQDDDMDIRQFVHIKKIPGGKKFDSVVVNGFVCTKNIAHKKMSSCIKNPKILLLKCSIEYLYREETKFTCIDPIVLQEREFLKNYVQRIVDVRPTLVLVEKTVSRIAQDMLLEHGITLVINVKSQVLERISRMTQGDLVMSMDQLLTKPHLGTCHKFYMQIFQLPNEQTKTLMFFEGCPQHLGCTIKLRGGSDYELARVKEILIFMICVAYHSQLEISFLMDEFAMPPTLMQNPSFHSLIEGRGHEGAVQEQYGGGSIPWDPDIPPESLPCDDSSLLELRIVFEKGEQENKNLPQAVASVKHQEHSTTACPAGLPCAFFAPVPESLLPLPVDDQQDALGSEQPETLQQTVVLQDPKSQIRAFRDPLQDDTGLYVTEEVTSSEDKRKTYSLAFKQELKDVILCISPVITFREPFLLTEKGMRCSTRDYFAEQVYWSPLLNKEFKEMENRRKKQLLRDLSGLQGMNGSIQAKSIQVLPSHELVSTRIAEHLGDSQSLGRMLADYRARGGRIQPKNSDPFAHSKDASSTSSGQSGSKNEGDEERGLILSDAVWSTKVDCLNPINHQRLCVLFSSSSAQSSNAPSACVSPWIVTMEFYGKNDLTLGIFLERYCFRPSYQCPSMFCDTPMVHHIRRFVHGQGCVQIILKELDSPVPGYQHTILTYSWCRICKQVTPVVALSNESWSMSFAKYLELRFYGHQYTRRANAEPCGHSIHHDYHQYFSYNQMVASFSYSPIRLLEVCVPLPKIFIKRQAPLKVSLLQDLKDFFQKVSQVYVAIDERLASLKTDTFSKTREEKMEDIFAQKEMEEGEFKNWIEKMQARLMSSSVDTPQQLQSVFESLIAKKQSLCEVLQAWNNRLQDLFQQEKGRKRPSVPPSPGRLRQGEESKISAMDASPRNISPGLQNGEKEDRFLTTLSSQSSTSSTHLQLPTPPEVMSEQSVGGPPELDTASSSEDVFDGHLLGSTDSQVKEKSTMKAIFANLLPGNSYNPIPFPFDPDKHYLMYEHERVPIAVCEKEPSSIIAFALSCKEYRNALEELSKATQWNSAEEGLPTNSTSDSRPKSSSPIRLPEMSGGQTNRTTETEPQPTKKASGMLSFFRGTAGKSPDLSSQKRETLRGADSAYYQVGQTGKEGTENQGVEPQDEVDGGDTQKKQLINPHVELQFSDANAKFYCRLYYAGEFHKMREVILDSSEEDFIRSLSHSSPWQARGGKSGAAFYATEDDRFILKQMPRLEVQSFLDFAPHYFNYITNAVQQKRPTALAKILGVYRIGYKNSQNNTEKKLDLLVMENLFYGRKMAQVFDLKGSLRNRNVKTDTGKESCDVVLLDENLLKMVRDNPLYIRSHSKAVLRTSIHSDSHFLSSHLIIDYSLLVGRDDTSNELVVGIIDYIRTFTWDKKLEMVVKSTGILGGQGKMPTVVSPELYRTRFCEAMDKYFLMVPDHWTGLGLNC
# T29 sequence (Q9BWU1 whole entry): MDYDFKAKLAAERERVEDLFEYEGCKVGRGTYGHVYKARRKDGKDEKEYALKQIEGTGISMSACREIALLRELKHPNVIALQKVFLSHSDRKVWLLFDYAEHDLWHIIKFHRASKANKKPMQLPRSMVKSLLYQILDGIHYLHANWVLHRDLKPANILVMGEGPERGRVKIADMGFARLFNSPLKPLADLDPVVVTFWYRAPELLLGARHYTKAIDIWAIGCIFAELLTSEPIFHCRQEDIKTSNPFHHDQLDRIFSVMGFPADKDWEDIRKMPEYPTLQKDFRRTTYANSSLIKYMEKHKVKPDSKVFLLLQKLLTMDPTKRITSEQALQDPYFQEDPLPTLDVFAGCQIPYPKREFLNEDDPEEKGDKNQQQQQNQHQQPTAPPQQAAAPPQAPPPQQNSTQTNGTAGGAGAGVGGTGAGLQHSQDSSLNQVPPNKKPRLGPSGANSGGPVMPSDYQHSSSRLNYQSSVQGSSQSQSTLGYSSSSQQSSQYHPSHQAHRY
# T8 sequence (Q15569 whole entry): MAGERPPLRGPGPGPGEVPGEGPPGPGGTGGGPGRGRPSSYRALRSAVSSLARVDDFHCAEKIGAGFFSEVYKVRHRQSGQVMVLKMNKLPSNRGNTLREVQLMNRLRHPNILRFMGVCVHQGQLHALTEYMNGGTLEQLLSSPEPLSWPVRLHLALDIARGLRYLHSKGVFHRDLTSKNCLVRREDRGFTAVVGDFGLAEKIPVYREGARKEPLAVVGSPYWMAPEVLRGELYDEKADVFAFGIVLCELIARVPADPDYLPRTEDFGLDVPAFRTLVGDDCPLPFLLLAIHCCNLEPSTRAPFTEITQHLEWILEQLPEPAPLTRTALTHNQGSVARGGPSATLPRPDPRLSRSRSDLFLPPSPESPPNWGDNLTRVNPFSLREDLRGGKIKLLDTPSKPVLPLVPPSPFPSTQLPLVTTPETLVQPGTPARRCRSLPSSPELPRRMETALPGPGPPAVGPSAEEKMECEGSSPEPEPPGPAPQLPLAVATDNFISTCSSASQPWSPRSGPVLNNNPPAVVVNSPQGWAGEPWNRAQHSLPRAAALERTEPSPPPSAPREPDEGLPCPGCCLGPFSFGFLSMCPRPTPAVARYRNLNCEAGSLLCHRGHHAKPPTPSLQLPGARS
# T28 sequence (Q9P289 whole entry): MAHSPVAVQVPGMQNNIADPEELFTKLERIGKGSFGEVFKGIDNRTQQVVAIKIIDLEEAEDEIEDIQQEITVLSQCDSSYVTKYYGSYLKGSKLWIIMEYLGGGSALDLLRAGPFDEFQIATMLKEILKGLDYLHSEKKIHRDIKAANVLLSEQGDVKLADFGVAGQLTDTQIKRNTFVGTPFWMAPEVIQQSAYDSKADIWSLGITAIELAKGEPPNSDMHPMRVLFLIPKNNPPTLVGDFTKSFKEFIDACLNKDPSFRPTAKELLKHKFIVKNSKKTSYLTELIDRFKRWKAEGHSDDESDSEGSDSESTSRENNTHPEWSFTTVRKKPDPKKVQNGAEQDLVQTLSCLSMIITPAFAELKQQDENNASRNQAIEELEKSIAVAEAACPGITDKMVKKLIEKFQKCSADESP
# T22 sequence (Q9Y2H1 whole entry): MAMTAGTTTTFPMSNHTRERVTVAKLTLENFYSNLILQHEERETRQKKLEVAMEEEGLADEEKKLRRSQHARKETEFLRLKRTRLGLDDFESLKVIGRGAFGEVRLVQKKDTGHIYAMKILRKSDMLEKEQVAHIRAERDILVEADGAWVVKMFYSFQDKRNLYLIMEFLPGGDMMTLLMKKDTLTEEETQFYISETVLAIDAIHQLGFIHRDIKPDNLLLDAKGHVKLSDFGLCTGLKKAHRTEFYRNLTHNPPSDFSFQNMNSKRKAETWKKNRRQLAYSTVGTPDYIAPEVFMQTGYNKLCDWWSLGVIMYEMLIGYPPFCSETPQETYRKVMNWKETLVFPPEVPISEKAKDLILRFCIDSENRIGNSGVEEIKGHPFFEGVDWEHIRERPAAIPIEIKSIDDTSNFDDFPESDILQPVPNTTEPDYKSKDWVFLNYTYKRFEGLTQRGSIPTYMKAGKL
smiles,measurement,setting,value
Cc1cc(Nc2ccc(F)c(CC3(C(=O)N4CCC(F)(CN5CCN(c6ccc(N7CCC(=O)NC7=O)cn6)CC5)CC4)CCN(Cc4cccc(Cl)c4F)CC3)n2)n[nH]1 [SK5527],remaining binding at 0.1 µM,PAK3; 100 nM,100%
same,remaining binding at 1 µM,PAK3; 1000 nM,100%
same,remaining binding at 0.1 µM,CSNK1G2; 100 nM,98%
same,remaining binding at 1 µM,CSNK1G2; 1000 nM,93%
same,remaining binding at 0.1 µM,CAMK2A; 100 nM,98%
same,remaining binding at 1 µM,CAMK2A; 1000 nM,100%
same,remaining binding at 0.1 µM,PIKFYVE; 100 nM,100%
same,remaining binding at 1 µM,PIKFYVE; 1000 nM,100%
same,remaining binding at 0.1 µM,AAK1; 100 nM,100%
same,remaining binding at 1 µM,AAK1; 1000 nM,92%
same,remaining binding at 0.1 µM,[1]; 100 nM,88%
same,remaining binding at 1 µM,[1]; 1000 nM,92%
same,remaining binding at 0.1 µM,TYRO3; 100 nM,80%
same,remaining binding at 1 µM,TYRO3; 1000 nM,89%
same,remaining binding at 0.1 µM,TESK1; 100 nM,66%
same,remaining binding at 1 µM,TESK1; 1000 nM,83%
same,remaining binding at 0.1 µM,PLK2; 100 nM,100%
same,remaining binding at 1 µM,PLK2; 1000 nM,87%
same,remaining binding at 0.1 µM,STK33; 100 nM,100%
same,remaining binding at 1 µM,STK33; 1000 nM,97%
same,remaining binding at 0.1 µM,SRPK1; 100 nM,93%
same,remaining binding at 1 µM,SRPK1; 1000 nM,100%
same,remaining binding at 0.1 µM,MRCKA; 100 nM,100%
same,remaining binding at 1 µM,MRCKA; 1000 nM,93%
same,remaining binding at 0.1 µM,ACVRL1; 100 nM,100%
same,remaining binding at 1 µM,ACVRL1; 1000 nM,100%
same,remaining binding at 0.1 µM,EGFR; 100 nM,91%
same,remaining binding at 1 µM,EGFR; 1000 nM,82%
same,remaining binding at 0.1 µM,PIK3CA; 100 nM,94%
same,remaining binding at 1 µM,PIK3CA; 1000 nM,90%
same,remaining binding at 0.1 µM,ASK1; 100 nM,91%
same,remaining binding at 1 µM,ASK1; 1000 nM,92%
same,remaining binding at 0.1 µM,TAOK3; 100 nM,100%
same,remaining binding at 1 µM,TAOK3; 1000 nM,100%
same,remaining binding at 0.1 µM,[2]; 100 nM,100%
same,remaining binding at 1 µM,[2]; 1000 nM,100%
same,remaining binding at 0.1 µM,MEK1; 100 nM,76%
same,remaining binding at 1 µM,MEK1; 1000 nM,72%
same,remaining binding at 0.1 µM,KIT(A829P); 100 nM,100%
same,remaining binding at 1 µM,KIT(A829P); 1000 nM,95%
same,remaining binding at 0.1 µM,PHKG2; 100 nM,95%
same,remaining binding at 1 µM,PHKG2; 1000 nM,97%
same,remaining binding at 0.1 µM,NDR2; 100 nM,100%
same,remaining binding at 1 µM,NDR2; 1000 nM,91%
same,remaining binding at 0.1 µM,MAP3K15; 100 nM,100%
same,remaining binding at 1 µM,MAP3K15; 1000 nM,81%
same,remaining binding at 0.1 µM,EPHB6; 100 nM,93%
same,remaining binding at 1 µM,EPHB6; 1000 nM,85%
same,remaining binding at 0.1 µM,ERK3; 100 nM,100%
same,remaining binding at 1 µM,ERK3; 1000 nM,94%
same,remaining binding at 0.1 µM,PRKCH; 100 nM,96%
same,remaining binding at 1 µM,PRKCH; 1000 nM,100%
same,remaining binding at 0.1 µM,ZAK; 100 nM,77%
same,remaining binding at 1 µM,ZAK; 1000 nM,85%
same,remaining binding at 0.1 µM,MST4; 100 nM,95%
same,remaining binding at 1 µM,MST4; 1000 nM,86%
same,remaining binding at 0.1 µM,CDK11; 100 nM,92%
same,remaining binding at 1 µM,CDK11; 1000 nM,85%
same,remaining binding at 0.1 µM,SNRK; 100 nM,71%
same,remaining binding at 1 µM,SNRK; 1000 nM,53%
same,remaining binding at 0.1 µM,HIPK4; 100 nM,85%
same,remaining binding at 1 µM,HIPK4; 1000 nM,81%
same,Percent Control,FLT3(ITD); 100 nM,89%
same,Percent Control,FLT3(ITD); 1000 nM,94%
same,remaining binding at 0.1 µM,PAK1; 100 nM,100%
same,remaining binding at 1 µM,PAK1; 1000 nM,88%
